Experimental data as given in ChEMBL document CHEMBL1201862, “PubChem BioAssay data set” (2004).
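Growth conditions: 96-well plates. Treatment: test compound, 48 hours, 5 concentrations. Analysis: linear interpolation between bracketing concentrations; unreached endpoints set to highest concentration. GI50: concentration for 50% inhibition of growth.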 Activity calls are given as the source filed them. Rule as the data show it: active = GI50 up to about 1.1 µM and inactive = higher.

Tests used:
Test in all cases: NCI tumour cell line growth inhibition, 48 h
HOP-62 = system: HOP-62
SN12C = system: SN12C
SK-MEL-2 = system: SK-MEL-2
OVCAR-8 = system: OVCAR-8
NCI-H460 = system: NCI-H460
NCI-H23 = system: NCI-H23
M14 = system: M14
OVCAR-3 = system: OVCAR-3
NCI-H226 = system: NCI-H226
EKVX = system: EKVX
SW-620 = system: SW-620
HCC 2998 = system: HCC 2998
A498 = system: A498
SR = system: SR

Row | Structure (SMILES) | GI50 (HOP-62) | GI50 (SN12C) | GI50 (SK-MEL-2) | GI50 (OVCAR-8) | GI50 (NCI-H460) | GI50 (NCI-H23) | GI50 (M14) | GI50 (OVCAR-3) | GI50 (NCI-H226) | GI50 (EKVX) | GI50 (SW-620) | GI50 (HCC 2998) | GI50 (A498) | GI50 (SR)
1 | CCCCCN(CCCCC)C(=O)[C@@H](CCC(=O)O)NC(=O)c1cc2ccccc2[nH]1 | 32.2 µM (inactive) | 43.4 µM (inactive) | 27.7 µM (inactive) | 52.8 µM (inactive) | 34.4 µM (inactive) | 22.8 µM (inactive) | 23.2 µM (inactive) | 33.9 µM (inactive) | 37.3 µM (inactive) | 48.1 µM (inactive) | 63.1 µM (inactive) | 34 µM (inactive) | > 100 µM (inactive) | 
2 | O=C1CC(=O)N(CCc2ccccc2)S(=O)(=O)N1CCc1ccccc1 | 36.2 µM (inactive) | 33 µM (inactive) | 22.6 µM (inactive) | > 10 µM (inactive) | 27.7 µM (inactive) | 25 µM (inactive) | 40.6 µM (inactive) | 16.9 µM (inactive) |  |  | 31.8 µM (inactive) | 86.9 µM (inactive) | 16.6 µM (inactive) | 22.7 µM (inactive)
3 | CCOC(=O)C(Oc1ccc(OC)c2c1C(=O)CCC2)c1ccccc1 (stereo not given) | > 100 µM (inactive) | > 100 µM (inactive) | > 100 µM (inactive) | > 100 µM (inactive) | > 100 µM (inactive) | 25.5 µM (inactive) | > 100 µM (inactive) | > 100 µM (inactive) |  | 50.2 µM (inactive) | > 100 µM (inactive) | > 100 µM (inactive) | > 100 µM (inactive) | 
4 | CN1C(c2ccccc2)CS(=O)(=O)CS1(=O)=O (stereo not given) | > 100 µM (inactive) | > 100 µM (inactive) | > 100 µM (inactive) | > 100 µM (inactive) | > 100 µM (inactive) | > 100 µM (inactive) | > 100 µM (inactive) | 30.1 µM (inactive) |  | > 100 µM (inactive) | > 100 µM (inactive) | > 100 µM (inactive) | > 100 µM (inactive) | 
5 | CCN(CC)CCCNc1nccc2c(C)c3c(cc12)c1cnccc1n3C | 0.116 µM (active) | 0.238 µM (active) |  | 0.0692 µM (active) | 0.0111 µM (active) | 0.179 µM (active) | 0.26 µM (active) | 0.237 µM (active) |  | 0.294 µM (active) | 0.0233 µM (active) | 0.0401 µM (active) | 1.18 µM (inactive) | 
6 | O=C(NC12CC3CC(CC(C3)C1)C2)C(=O)c1c[nH]c2ccc(Cl)cc12 | 7.13 µM (inactive) | 56.1 µM (inactive) | 26.7 µM (inactive) |  | 22.2 µM (inactive) | > 100 µM (inactive) | 20 µM (inactive) | 13.8 µM (inactive) | 37.4 µM (inactive) | > 100 µM (inactive) |  | 32.9 µM (inactive) |  | 54.5 µM (inactive)
7 | C/C(CC(=O)Nc1cccc([N+](=O)[O-])c1)=N/NC(N)=S | > 100 µM (inactive) |  | > 100 µM (inactive) | > 100 µM (inactive) | > 100 µM (inactive) | > 100 µM (inactive) | > 100 µM (inactive) | > 100 µM (inactive) | > 100 µM (inactive) | > 100 µM (inactive) | > 100 µM (inactive) | > 100 µM (inactive) |  | 
8 | Cc1ccc(S(=O)(=O)N/N=C(\c2nc3ccc([N+](=O)[O-])cc3[nH]c2=O)C(O)c2ccc([N+](=O)[O-])cc2)cc1 (stereo not given) | 51.2 µM (inactive) | > 100 µM (inactive) | > 100 µM (inactive) | > 100 µM (inactive) | 55.2 µM (inactive) | > 100 µM (inactive) | > 100 µM (inactive) | > 100 µM (inactive) |  | > 100 µM (inactive) | > 100 µM (inactive) | 28.2 µM (inactive) | > 100 µM (inactive) | 
9 | COC1=CC(=O)c2ccc(C(C)C)cc2C1(C)C1=NC(C)(C)CO1 (stereo not given) | > 100 µM (inactive) | > 100 µM (inactive) | > 100 µM (inactive) | > 100 µM (inactive) | > 100 µM (inactive) | > 100 µM (inactive) | > 100 µM (inactive) | > 100 µM (inactive) | > 100 µM (inactive) | > 100 µM (inactive) | > 100 µM (inactive) |  |  | 86.3 µM (inactive)
10 | CC(=O)NC(CCCCNC(=O)N(C)N=O)C(=O)NCc1ccccc1 (stereo not given) | > 100 µM (inactive) | > 100 µM (inactive) | > 100 µM (inactive) | > 100 µM (inactive) | 79.6 µM (inactive) | > 100 µM (inactive) | > 100 µM (inactive) | > 100 µM (inactive) | > 100 µM (inactive) | > 100 µM (inactive) | > 100 µM (inactive) | > 100 µM (inactive) | > 100 µM (inactive) | 
11 | COc1ccc(/C=C/C(=O)c2c(-c3ccccc3)nn(C)c(=O)c2N2CC2C)cc1 (stereo not given) | 35.6 µM (inactive) | 37 µM (inactive) | 21.8 µM (inactive) | 32.4 µM (inactive) | 27.5 µM (inactive) | 19 µM (inactive) | 28.8 µM (inactive) | 24.3 µM (inactive) | 45.3 µM (inactive) | 19.6 µM (inactive) | 26.4 µM (inactive) | 26.6 µM (inactive) | 23.9 µM (inactive) | 
12 | CC(=O)NNc1nc(C)c(C(/C=C/c2ccc(/C=C/C(=N\NC(=O)c3ccncc3)c3sc(NNC(C)=O)nc3C)cc2)=N/NC(=O)c2ccncc2)s1 | > 100 µM (inactive) | > 100 µM (inactive) | > 100 µM (inactive) | > 100 µM (inactive) | > 100 µM (inactive) | > 100 µM (inactive) | 41.7 µM (inactive) | > 100 µM (inactive) | > 100 µM (inactive) | > 100 µM (inactive) | > 100 µM (inactive) | > 100 µM (inactive) | > 100 µM (inactive) | 
13 | CC(=O)Nc1[nH]c(=O)[nH]c(=O)c1N(C(C)=O)C(C)=O |  | > 100 µM (inactive) | > 100 µM (inactive) | > 100 µM (inactive) | > 100 µM (inactive) |  | > 100 µM (inactive) | > 100 µM (inactive) | > 100 µM (inactive) | > 100 µM (inactive) | > 100 µM (inactive) | > 100 µM (inactive) | > 100 µM (inactive) | 
14 | O=C1c2ccccc2C(=O)c2cc3c(cc21)C[S+]([O-])C3 | > 100 µM (inactive) | 20 µM (inactive) | > 100 µM (inactive) | > 100 µM (inactive) | > 100 µM (inactive) | > 100 µM (inactive) | > 100 µM (inactive) | > 100 µM (inactive) |  | > 100 µM (inactive) | > 100 µM (inactive) | > 100 µM (inactive) |  | 
15 | Clc1cc(Cl)cc(Nc2nc3ccccc3nc2-c2cccs2)c1 | 40.4 µM (inactive) | 54.3 µM (inactive) | > 100 µM (inactive) | 13.3 µM (inactive) | 14.3 µM (inactive) | 28.8 µM (inactive) |  | 29.1 µM (inactive) | 40 µM (inactive) | 41.3 µM (inactive) | > 100 µM (inactive) | 99.3 µM (inactive) |  | 51.2 µM (inactive)
16 | O=C(O)CN(c1ccccc1)S(=O)(=O)c1ccc([N+](=O)[O-])cc1 |  | > 100 µM (inactive) | > 100 µM (inactive) | > 100 µM (inactive) | > 100 µM (inactive) | > 100 µM (inactive) | > 100 µM (inactive) | > 100 µM (inactive) | > 100 µM (inactive) | > 100 µM (inactive) | > 100 µM (inactive) |  | > 100 µM (inactive) | 
